# Experimental data as given in patent US6603046B1, “Bis-aromatic a,β-unsaturated ketones” (Lica Pharmaceuticals A/S, priority 1992, dated 2003).
# Where “and” joins values, the source holds several entries; their conditions need not be identical. Equal values may be shown once.
# What was measured:
# [1] = test system: P. yoelii strain YM; experiment: P. yoelii strain YM infection in mice, parasitemia and mortality (Example 16); format: in vivo, BALB/c mice; conditions: for Parasitemia, mean / Parasitemia, single mice: 10 mg per kg twice daily days +1 to +4; for % parasitemia, Mean: orally 100 mg/kg/dose 3 and 24 h after infection
# [2] = test system: Staphylococcus aureus ATCC 25923; experiment: MIC, macrodilution (Example 17); format: cell-based; conditions: ATCC25923
# [3] = test system: L. major in human PBM-derived macrophages; experiment: L. major in human PBM-derived macrophages, microscopic counting (Example 7); format: cell-based, Leishmania major
# [4] = test system: human lymphocytes, neutrophils, and monocytes; experiment: Trypan blue dye exclusion method; format: cell-based; conditions: 20 μg/ml
# Method: Trypan blue dye exclusion method. This is a standard method used to determine cell viability. The assay is performed by incubating a given cell suspension with trypan blue for various periods of time after which the cells are examined under microscope. Dead cells will take up the dye and therefore show a blue colour. Percent viability is determined by counting at least a total of 200 cells.
# [5] = D + 12, i.p. 10 mg/kg twice daily D-1, D0
# [6] = D + 14, i.p. 10 mg/kg twice daily D-1, D0
# [7] = D + 16, i.p. 10 mg/kg four times daily D + 4 to D + 7
# [8] = D + 16, i.p. 10 mg/kg twice daily D-1, D0
# [9] = D + 18, i.p. 10 mg/kg four times daily D + 4 to D + 7
# [10] = D + 18, i.p. 10 mg/kg twice daily D-1, D0
# [11] = D + 20, i.p. 10 mg/kg four times daily D + 4 to D + 7
# [12] = D + 20, i.p. 10 mg/kg twice daily D-1, D0
# [13] = 3 days after infection, 0.5 μg/ml
# [14] = 3 days after infection, 1 μg/ml
# [15] = 6 days after infection, 0.5 μg/ml
# [16] = 6 days after infection, 1 μg/ml
smiles,measurement,setting,value
"C=CC(C)(C)c1cc(/C=C/C(=O)c2ccc(O)cc2)c(OC)cc1O [Licochalcone A, licochalcone A]",% parasitemia (mean ± SEM),"[1]; D + 12, 15 mg/kg/day twice daily, 3 h after infection, D + 1 to D + 5",0%
same,mortality (no. of dead mice/total no. of tested mice),"[1]; D + 12, i.p. 5 mg/kg/day twice daily to D + 3",(5/5)
same,% parasitemia (mean ± SEM),"[1]; D + 12, i.p. 10 mg/kg four times daily D + 4 to D + 7",50.4 ± 15.6%
same,% parasitemia (mean ± SEM),[1]; [5],55.7 ± 48.4%
same,mortality (no. of dead mice/total no. of tested mice),[1]; [5],2/5
same,mortality (no. of dead mice/total no. of tested mice),"[1]; D + 12, i.p. 10 mg/kg/day twice daily to D + 3",4/5
same,% parasitemia (mean ± SEM),"[1]; D + 12, i.p. 10 mg/kg/day twice daily, 3 h after infection and D + 1 to D + 3",82%
same,mortality (no. of dead mice/total no. of tested mice),"[1]; D + 12, i.p. 15 mg/kg/day twice daily to D + 3",(1/5)
same,% parasitemia (mean ± SEM),"[1]; D + 12, i.p. 15 mg/kg/day twice daily, 3 h after infection and D + 1 to D + 3",4.8 ± 3.2%
same,"Parasitemia, mean",[1]; D + 13,50.0%
same,"% parasitemia, Mean",[1]; D + 13,6.5%
same,"Parasitemia, mean",[1]; D + 14,35.0%
same,mortality (no. of dead mice/total no. of tested mice),"[1]; D + 14, 10 mg/kg/day twice daily to D + 5",1/5
same,% parasitemia (mean ± SEM),"[1]; D + 14, 10 mg/kg/day twice daily, 3 h after infection, D + 1 to D + 5",17 ± 17%
same,% parasitemia (mean ± SEM),"[1]; D + 14, 15 mg/kg/day twice daily, 3 h after infection, D + 1 to D + 5",0%
same,% parasitemia (mean ± SEM),"[1]; D + 14, i.p. 10 mg/kg four times daily D + 4 to D + 7",58.6 ± 9.0%
same,% parasitemia (mean ± SEM),[1]; [6],0%
same,mortality (no. of dead mice/total no. of tested mice),[1]; [6],4/5
same,mortality (no. of dead mice/total no. of tested mice),"[1]; D + 14, i.p. 10 mg/kg/day twice daily to D + 3",(5/5)
same,mortality (no. of dead mice/total no. of tested mice),"[1]; D + 14, i.p. 15 mg/kg/day twice daily to D + 3",1/5
same,% parasitemia (mean ± SEM),"[1]; D + 14, i.p. 15 mg/kg/day twice daily, 3 h after infection and D + 1 to D + 3",0%
same,"Parasitemia, mean",[1]; D + 15,2.0%
same,"Parasitemia, single mice",[1]; D + 15,2.0%
same,"Parasitemia, mean",[1]; D + 16,0.3%
same,"Parasitemia, single mice",[1]; D + 16,0.5% and 0.1%
same,mortality (no. of dead mice/total no. of tested mice),"[1]; D + 16, 10 mg/kg/day twice daily to D + 5",2/5
same,% parasitemia (mean ± SEM),"[1]; D + 16, 10 mg/kg/day twice daily, 3 h after infection, D + 1 to D + 5",0%
same,% parasitemia (mean ± SEM),"[1]; D + 16, 15 mg/kg/day twice daily, 3 h after infection, D + 1 to D + 5",0%
same,% parasitemia (mean ± SEM),[1]; [7],75.8 ± 6.6%
same,mortality (no. of dead mice/total no. of tested mice),[1]; [7],1/5
same,% parasitemia (mean ± SEM),[1]; [8],0%
same,mortality (no. of dead mice/total no. of tested mice),[1]; [8],4/5
same,"% parasitemia, Mean",[1]; D + 16,0%
same,"Parasitemia, mean",[1]; D + 17,0.0%
same,"Parasitemia, single mice",[1]; D + 17,0.0%
same,mortality (no. of dead mice/total no. of tested mice),"[1]; D + 18, 10 mg/kg/day twice daily to D + 5",2/5
same,% parasitemia (mean ± SEM),"[1]; D + 18, 10 mg/kg/day twice daily, 3 h after infection, D + 1 to D + 5",0%
same,% parasitemia (mean ± SEM),"[1]; D + 18, 15 mg/kg/day twice daily, 3 h after infection, D + 1 to D + 5",0%
same,% parasitemia (mean ± SEM),[1]; [9],53 ± 25%
same,mortality (no. of dead mice/total no. of tested mice),[1]; [9],2/5
same,% parasitemia (mean ± SEM),[1]; [10],0%
same,mortality (no. of dead mice/total no. of tested mice),[1]; [10],4/5
same,% parasitemia (mean ± SEM),[1]; [11],19 ± 9.7%
same,mortality (no. of dead mice/total no. of tested mice),[1]; [11],3/5
same,% parasitemia (mean ± SEM),[1]; [12],0%
same,mortality (no. of dead mice/total no. of tested mice),[1]; [12],4/5
same,MIC,[2],18 µg/mL
same,% of amast.,[3]; [13],91.6%
same,% of infec. cells,[3]; [13],14.0%
same,amast. per cell,[3]; [13],1.7
same,proma. per cell,[3]; [13],0.1
same,total amast.,[3]; [13],23.3 ×10^6
same,total proma.,[3]; [13],2.0 ×10^6
same,% of amast.,[3]; [14],88.2%
same,% of infec. cells,[3]; [14],10.7%
same,amast. per cell,[3]; [14],1.7
same,proma. per cell,[3]; [14],0.2
same,total amast.,[3]; [14],17.7 ×10^6
same,total proma.,[3]; [14],2.0 ×10^6
same,% of infec. cells,"[3]; 3 days after infection, 5 μg/ml",0%
same,% of infec. cells,"[3]; 3 days after infection, 10 μg/ml",0%
same,% of amast.,[3]; [15],100%
same,% of infec. cells,[3]; [15],8.0%
same,amast. per cell,[3]; [15],1.7
same,proma. per cell,[3]; [15],0
same,total amast.,[3]; [15],14 ×10^6
same,total proma.,[3]; [15],0 ×10^6
same,% of amast.,[3]; [16],100%
same,% of infec. cells,[3]; [16],7.3%
same,amast. per cell,[3]; [16],2.2
same,proma. per cell,[3]; [16],0
same,total amast.,[3]; [16],16 ×10^6
same,total proma.,[3]; [16],0 ×10^6
same,% of infec. cells,"[3]; 6 days after infection, 5 μg/ml",0%
same,% of infec. cells,"[3]; 6 days after infection, 10 μg/ml",0%
same,"toxic effect, trypan blue dye exclusion",[4],no toxic effect
